Data taken from paper PMC5564600 (Oncotarget, 2017).

How the values were obtained:
panel of 442 kinases [1] = target: T1, panel of 442 kinases (Homo sapiens, UniProt P45984); assay: biochemical; format: binding; settings: kinase JNK2; for remaining activity at 1 µM: read-out: % of control at 1 µM
T1 construct: purchased Ambit Biosciences (scanMAXX KINOMEscan)

panel of 442 kinases [2] = target: T2, panel of 442 kinases (Homo sapiens, UniProt Q9H1R3); assay: biochemical; format: binding; settings: kinase MYLK2; for remaining activity at 1 µM: read-out: % of control at 1 µM
T2 construct: purchased Ambit Biosciences (scanMAXX KINOMEscan)

panel of 442 kinases [3] = target: T3, panel of 442 kinases (Homo sapiens, UniProt P42345); assay: biochemical; format: binding; settings: kinase MTOR; for remaining activity at 1 µM: read-out: % of control at 1 µM
T3 construct: purchased Ambit Biosciences (scanMAXX KINOMEscan)

panel of 442 kinases [4] = target: T4, panel of 442 kinases (Homo sapiens, UniProt P57078); assay: biochemical; format: binding; settings: kinase RIPK4; for remaining activity at 1 µM: read-out: RIPK4 (% of control at 1 µM)
T4 construct: purchased Ambit Biosciences (scanMAXX KINOMEscan)
T4 sequence (P57078 1-832): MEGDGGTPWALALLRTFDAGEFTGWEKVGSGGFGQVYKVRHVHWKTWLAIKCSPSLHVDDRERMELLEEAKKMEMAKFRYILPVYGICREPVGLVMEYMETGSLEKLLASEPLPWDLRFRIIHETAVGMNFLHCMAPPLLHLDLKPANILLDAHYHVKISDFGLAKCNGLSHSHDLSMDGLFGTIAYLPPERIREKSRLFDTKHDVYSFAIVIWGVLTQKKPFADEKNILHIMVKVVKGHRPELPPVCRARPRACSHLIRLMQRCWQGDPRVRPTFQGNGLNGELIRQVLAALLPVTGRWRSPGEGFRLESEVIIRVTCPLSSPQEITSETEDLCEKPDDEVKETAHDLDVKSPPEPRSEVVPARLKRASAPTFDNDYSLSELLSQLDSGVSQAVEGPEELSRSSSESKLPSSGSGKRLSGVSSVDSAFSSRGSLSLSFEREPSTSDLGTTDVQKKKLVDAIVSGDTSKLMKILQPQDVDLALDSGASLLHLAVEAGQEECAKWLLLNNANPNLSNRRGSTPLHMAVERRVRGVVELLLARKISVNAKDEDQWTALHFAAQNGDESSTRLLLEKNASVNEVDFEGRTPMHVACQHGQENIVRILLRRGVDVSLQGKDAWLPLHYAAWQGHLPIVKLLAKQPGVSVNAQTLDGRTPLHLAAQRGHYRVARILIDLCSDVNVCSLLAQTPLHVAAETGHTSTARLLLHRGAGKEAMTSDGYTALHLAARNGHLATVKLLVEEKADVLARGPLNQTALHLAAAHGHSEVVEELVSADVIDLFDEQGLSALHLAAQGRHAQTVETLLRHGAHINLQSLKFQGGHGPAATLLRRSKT

panel of 442 kinases [5] = target: T5, panel of 442 kinases (Homo sapiens, UniProt P07333); assay: biochemical; format: binding; settings: CSF1R; for remaining activity at 1 µM: read-out: % of control at 1 µM
T5 construct: purchased Ambit Biosciences (scanMAXX KINOMEscan)

panel of 442 kinases [6] = target: panel of 442 kinases (Homo sapiens, UniProt P42336, E542K); assay: biochemical; format: binding; settings: kinase PIK3CA(E542K); 1 µM; read-out: % of control at 1 µM
panel of 442 kinases [7] = target: panel of 442 kinases (Homo sapiens, UniProt P42336, H1047L); assay: biochemical; format: binding; settings: kinase PIK3CA(H1047L); 1 µM; read-out: % of control at 1 µM
panel of 442 kinases [8] = target: panel of 442 kinases (Homo sapiens, UniProt P42336, C420R); assay: biochemical; format: binding; settings: kinase PIK3CA(C420R); 1 µM; read-out: % of control at 1 µM
panel of 442 kinases [9] = target: panel of 442 kinases (Homo sapiens, UniProt P42336, M1043I); assay: biochemical; format: binding; settings: kinase PIK3CA(M1043I); 1 µM; read-out: % of control at 1 µM
panel of 442 kinases [10] = target: panel of 442 kinases (Homo sapiens, UniProt P42336, E545A); assay: biochemical; format: binding; settings: kinase PIK3CA(E545A); 1 µM; read-out: % of control at 1 µM
panel of 442 kinases [11] = target: panel of 442 kinases (Homo sapiens, UniProt P42336, E545K); assay: biochemical; format: binding; settings: kinase PIK3CA(E545K); 1 µM; read-out: % of control at 1 µM
panel of 442 kinases [12] = target: panel of 442 kinases (Homo sapiens, UniProt P42336, H1047Y); assay: biochemical; format: binding; settings: kinase PIK3CA(H1047Y); 1 µM; read-out: % of control at 1 µM
panel of 442 kinases [13] = target: panel of 442 kinases (Homo sapiens, UniProt P42336, I800L); assay: biochemical; format: binding; settings: kinase PIK3CA(I800L); 1 µM; read-out: % of control at 1 µM
PI3Kγ = PI3Kγ (Homo sapiens, UniProt P48736); assay: PI3K (human) HTRF assay, PI3Kγ; format: biochemical; settings: ATP 10 μM, mean ± SEM
panel of 442 kinases [14] = target: panel of 442 kinases (Homo sapiens, UniProt P42336, Q546K); assay: biochemical; format: binding; settings: kinase PIK3CA(Q546K); 1 µM; read-out: % of control at 1 µM
panel of 442 kinases [15] = target: panel of 442 kinases (Homo sapiens, UniProt P42336); assay: biochemical; format: binding; settings: kinase PIK3CA; 1 µM; read-out: % of control at 1 µM
panel of 442 kinases [16] = target: panel of 442 kinases (Homo sapiens, UniProt Q16584); assay: biochemical; format: binding; settings: kinase MLK3; 1 µM; read-out: % of control at 1 µM
mTOR = mTOR (Homo sapiens, UniProt P42345); assay: SelectScreen Z'LYTE kinase assay (Invitrogen), mTOR; format: biochemical; settings: determined by Invitrogen, mean ± SEM, n=2
[17] = 10 µM, read-out: % of control at 10 µM

SMILES | remaining activity at 1 µM (panel of 442 kinases [1]) [%] | remaining activity at 1 µM (panel of 442 kinases [2]) [%] | remaining activity at 1 µM (panel of 442 kinases [3]) [%] | remaining activity at 1 µM (panel of 442 kinases [4]) [%] | remaining activity at 1 µM (panel of 442 kinases [5]) [%] | remaining activity at 1 µM (panel of 442 kinases [6]) [%] | remaining activity at 1 µM (panel of 442 kinases [7]) [%] | remaining activity at 1 µM (panel of 442 kinases [8]) [%] | remaining activity at 1 µM (panel of 442 kinases [9]) [%] | remaining activity at 1 µM (panel of 442 kinases [10]) [%] | remaining activity at 1 µM (panel of 442 kinases [11]) [%] | remaining activity at 1 µM (panel of 442 kinases [12]) [%] | remaining activity at 1 µM (panel of 442 kinases [13]) [%] | further results
Nc1cc(C(F)(F)F)c(-c2cc(N3CCOCC3)nc(N3CCOCC3)n2)cn1 [Buparlisib] | 100 | 100 | 20 | 82 | 85 | – | – | – | – | – | – | – | – | remaining activity at 10 µM (panel of 442 kinases [1]; [17]): 100%; remaining activity at 10 µM (panel of 442 kinases [2]; [17]): 100%; remaining activity at 10 µM (panel of 442 kinases [3]; [17]): 4.6%; remaining activity at 10 µM (panel of 442 kinases [4]; 10 µM, read-out: RIPK4 (% of control at 10 µM)): 88%; remaining activity at 10 µM (panel of 442 kinases [5]; [17]): 40%
Cn1c(=O)n(-c2ccc(C(C)(C)C#N)cc2)c2c3cc(-c4cnc5ccccc5c4)ccc3ncc21 [Dactolisib, 2-methyl-2-[4-(3-methyl-2-oxo-8-quinolin-3-yl-2,3-dihydroimidazo[4,5-c]quinolin-1-yl)-phenyl] propionitrile] | 100 | 93 | 0 | 57 | – | 6.4 | 0.15 | 8.1 | 1.4 | 9.2 | 5.5 | 3.8 | 0 | –
COc1ncc(-c2ccc3nccc(-c4ccnnc4)c3c2)cc1NS(=O)(=O)c1ccc(F)cc1F [Omipalisib] | 100 | 100 | 0 | 70 | 100 | 0.05 | 5.6 | 0 | 0 | 0 | 0.1 | 0 | 3.8 | IC50 (PI3Kγ): 0.0012 ± 0.0002 µM; remaining activity at 1 µM (panel of 442 kinases [14]): 0.1%; remaining activity at 1 µM (panel of 442 kinases [15]): 0%
FC(F)c1nc2ccccc2n1-c1nc(N2CCOCC2)nc(N2CCOCC2)n1 [ZSTK474, 2-(difluoromethyl)-1-[4,6-di(4-morpholinyl)-1,3,5-triazin-2-yl]-1H-benzimidazole] | 100 | 95 | 0.75 | 77 | 90 | – | – | – | – | – | – | – | – | remaining activity at 1 µM (panel of 442 kinases [16]): 56%; IC50 (mTOR): 0.102 ± 0.019 µM
